Source: PMC5218480 (PLoS ONE, 2017)

Tested on: MV-4-11 cells
Test: Gene expression microarray analysis (Affymetrix PrimeView) and GSEA
Assay type: cell-based, human
Parameters: RFU PODN (11730768_x_at) / Fold change /veh PODN (11730768_x_at) / RFU LINC00158 (11744669_a_at) / Fold change /veh LINC00158 (11744669_a_at) / RFU DUSP10 (11751237_a_at) / Fold change /veh DUSP10 (11751237_a_at) / RFU ID3 (11757404_x_at) / Fold change /veh ID3 (11757404_x_at) / RFU PLEKHG5 (11737974_s_at) / Fold change /veh PLEKHG5 (11737974_s_at) / RFU LRRC4B (11730491_at) / Fold change /veh LRRC4B (11730491_at) / RFU GIMAP4 (11747438_a_at) / Fold change /veh GIMAP4 (11747438_a_at) / RFU KRT8 (11758183_x_at) / Fold change /veh KRT8 (11758183_x_at) / RFU CNN1 (11734310_a_at) / Fold change /veh CNN1 (11734310_a_at) / RFU VPS37D (11726825_at) / Fold change /veh VPS37D (11726825_at) / RFU C10orf10 (11716522_x_at) / Fold change /veh C10orf10 (11716522_x_at) / RFU KIR2DL2 /// KIR2DL4 /// KIR2DL5A /// KIR2DL5B /// KIR2DS1 /// KIR2DS2 /// KIR2DS3 /// KIR2DS4 /// KIR3DL3 /// KIR3DL3 /// KIR3DS1 (11738374_at) / Fold change /veh KIR2DL2 /// KIR2DL4 /// KIR2DL5A /// KIR2DL5B /// KIR2DS1 /// KIR2DS2 /// KIR2DS3 /// KIR2DS4 /// KIR3DL3 /// KIR3DL3 /// KIR3DS1 (11738374_at) / RFU C1QL1 (11718748_at) / Fold change /veh C1QL1 (11718748_at) / RFU TMPRSS4 (11747572_a_at) / Fold change /veh TMPRSS4 (11747572_a_at) / RFU HAMP (11756126_x_at) / Fold change /veh HAMP (11756126_x_at) / RFU RNFT2 (11725882_a_at) / Fold change /veh RNFT2 (11725882_a_at) / RFU NR4A2 (11747474_a_at) / Fold change /veh NR4A2 (11747474_a_at) / RFU ABCC12 (11746883_a_at) / Fold change /veh ABCC12 (11746883_a_at) / RFU TMEM136 (11760407_x_at) / Fold change /veh TMEM136 (11760407_x_at) / RFU CLDN22 /// WWC2 (11732394_at) / Fold change /veh CLDN22 /// WWC2 (11732394_at) / RFU HLA-DPB1 (11760878_x_at) / Fold change /veh HLA-DPB1 (11760878_x_at) / RFU SPINT1 (11716480_a_at) / Fold change /veh SPINT1 (11716480_a_at) / RFU GAP43 (11754022_s_at) / Fold change /veh GAP43 (11754022_s_at) / RFU A4GNT (11735810_at) / Fold change /veh A4GNT (11735810_at) / RFU PRB3 (11715151_x_at) / Fold change /veh PRB3 (11715151_x_at) / RFU TUBB4B (11761932_at) / Fold change /veh TUBB4B (11761932_at) / RFU CAPN14 (11732068_a_at) / Fold change /veh CAPN14 (11732068_a_at) / RFU TMCC2 (11721928_a_at) / Fold change /veh TMCC2 (11721928_a_at) / RFU IRGQ (11745062_a_at) / Fold change /veh IRGQ (11745062_a_at) / RFU FAM174B (11720279_a_at) / Fold change /veh FAM174B (11720279_a_at) / RFU TMPRSS4 (11748680_a_at) / Fold change /veh TMPRSS4 (11748680_a_at) / RFU FAM212B (11763350_a_at) / Fold change /veh FAM212B (11763350_a_at) / RFU PLEKHG5 (11743358_a_at) / Fold change /veh PLEKHG5 (11743358_a_at) / RFU ZSCAN30 (11745921_a_at) / Fold change /veh ZSCAN30 (11745921_a_at) / RFU CMKLR1 (11741424_a_at) / Fold change /veh CMKLR1 (11741424_a_at) / RFU LOC101060620 /// MAPK8IP1 (11723275_at) / Fold change /veh LOC101060620 /// MAPK8IP1 (11723275_at) / RFU SPTSSB (11747773_x_at) / Fold change /veh SPTSSB (11747773_x_at) / RFU PRSS12 (11739890_at) / Fold change /veh PRSS12 (11739890_at) / RFU BIN1 (11741810_x_at) / Fold change /veh BIN1 (11741810_x_at) / RFU WNT11 (11732464_a_at) / Fold change /veh WNT11 (11732464_a_at) / RFU C10orf10 (11716521_a_at) / Fold change /veh C10orf10 (11716521_a_at) / RFU C5orf56 (11738089_at) / Fold change /veh C5orf56 (11738089_at) / RFU CYB561 (11721691_x_at) / Fold change /veh CYB561 (11721691_x_at) / RFU ANKRD19P (11752326_a_at) / Fold change /veh ANKRD19P (11752326_a_at) / RFU OR2T12 /// OR2T33 /// OR2T8 (11738714_s_at) / Fold change /veh OR2T12 /// OR2T33 /// OR2T8 (11738714_s_at) / RFU VCAN (11748164_a_at) / Fold change /veh VCAN (11748164_a_at) / RFU JSRP1 (11732532_at) / Fold change /veh JSRP1 (11732532_at) / RFU KRTAP10-11 (11738290_x_at) / Fold change /veh KRTAP10-11 (11738290_x_at) / RFU MYO3A (11730013_a_at) / Fold change /veh MYO3A (11730013_a_at) / RFU EBF3 (11725865_a_at) / Fold change /veh EBF3 (11725865_a_at) / RFU CAMK2N1 (11719241_x_at) / Fold change /veh CAMK2N1 (11719241_x_at) / RFU C5orf56 (11738088_a_at) / Fold change /veh C5orf56 (11738088_a_at) / RFU OLFML3 (11715873_a_at) / Fold change /veh OLFML3 (11715873_a_at) / RFU LOC100653217 /// NTM (11731650_a_at) / Fold change /veh LOC100653217 /// NTM (11731650_a_at) / RFU MAPK11 (11762145_a_at) / Fold change /veh MAPK11 (11762145_a_at) / RFU FIZ1 (11724087_x_at) / Fold change /veh FIZ1 (11724087_x_at) / RFU OASL (11726364_x_at) / Fold change /veh OASL (11726364_x_at) / RFU SOX15 (11748057_x_at) / Fold change /veh SOX15 (11748057_x_at) / RFU CD79A (11719716_a_at) / Fold change /veh CD79A (11719716_a_at) / RFU HIST1H1D (11736915_at) / Fold change /veh HIST1H1D (11736915_at) / RFU CASKIN2 (11723855_a_at) / Fold change /veh CASKIN2 (11723855_a_at) / RFU LOC730098 (11760151_x_at) / Fold change /veh LOC730098 (11760151_x_at) / RFU OR4N2 (11742367_at) / Fold change /veh OR4N2 (11742367_at) / RFU PRRT2 (11749266_a_at) / Fold change /veh PRRT2 (11749266_a_at) / RFU SNX32 (11753110_a_at) / Fold change /veh SNX32 (11753110_a_at) / RFU CDHR5 (11726645_a_at) / Fold change /veh CDHR5 (11726645_a_at) / RFU RCAN1 (11760418_a_at) / Fold change /veh RCAN1 (11760418_a_at) / RFU FAM167A (11723789_a_at) / Fold change /veh FAM167A (11723789_a_at) / RFU FAM26E (11764081_at) / Fold change /veh FAM26E (11764081_at) / RFU ISYNA1 (11749810_s_at) / Fold change /veh ISYNA1 (11749810_s_at) / RFU ACY1 (11761880_at) / Fold change /veh ACY1 (11761880_at) / RFU 11764098_at / Fold change /veh 11764098_at / RFU SAMD14 (11745864_x_at) / Fold change /veh SAMD14 (11745864_x_at) / RFU NPB (11741838_a_at) / Fold change /veh NPB (11741838_a_at) / RFU TMPRSS6 (11731388_a_at) / Fold change /veh TMPRSS6 (11731388_a_at) / RFU KRTAP10-2 (11738614_at) / Fold change /veh KRTAP10-2 (11738614_at) / RFU ARHGAP8 /// PRR5-ARHGAP8 (11727945_x_at) / Fold change /veh ARHGAP8 /// PRR5-ARHGAP8 (11727945_x_at) / RFU KRTAP5-7 /// NADSYN1 (11734609_at) / Fold change /veh KRTAP5-7 /// NADSYN1 (11734609_at) / RFU RASL12 (11751679_a_at) / Fold change /veh RASL12 (11751679_a_at) / RFU CDKN2B (11736163_a_at) / Fold change /veh CDKN2B (11736163_a_at) / RFU PRF1 (11729649_at) / Fold change /veh PRF1 (11729649_at) / RFU, ZNF638 /// ZNF638-IT1 / Fold change vs veh, ZNF638 /// ZNF638-IT1 / RFU, PANK3 / Fold change vs veh, PANK3 / RFU, SH3YL1 / Fold change vs veh, SH3YL1 / RFU, ZEB2 / Fold change vs veh, ZEB2 / RFU, NRIP1 / Fold change vs veh, NRIP1 / RFU, PTTG1IP / Fold change vs veh, PTTG1IP / RFU, CAPN2 / Fold change vs veh, CAPN2 / RFU, MED14 / Fold change vs veh, MED14 / RFU, SNORA58 / Fold change vs veh, SNORA58 / RFU, C1orf63 / Fold change vs veh, C1orf63 / RFU, LRRFIP1 / Fold change vs veh, LRRFIP1 / RFU, NDUFAF7 / Fold change vs veh, NDUFAF7 / RFU, SLC12A2 / Fold change vs veh, SLC12A2 / RFU, IBTK / Fold change vs veh, IBTK / RFU, ESF1 / Fold change vs veh, ESF1 / Fold change vs veh, TMEM50B / RFU, TAOK1 / Fold change vs veh, TAOK1 / RFU, ACBD3 / Fold change vs veh, ACBD3 / RFU, TMA16 / Fold change vs veh, TMA16 / RFU, RWDD3 / Fold change vs veh, RWDD3 / RFU, BCAT1 / Fold change vs veh, BCAT1 / RFU, EDEM3 / Fold change vs veh, EDEM3 / RFU, TMEM33 / Fold change vs veh, TMEM33 / RFU, WDR75 / Fold change vs veh, WDR75 / RFU, AHCTF1 / Fold change vs veh, AHCTF1 / RFU, TFRC / Fold change vs veh, TFRC / RFU, ZDHHC17 / Fold change vs veh, ZDHHC17 / RFU, NOM1 / Fold change vs veh, NOM1 / RFU, ARL8B / Fold change vs veh, ARL8B / RFU, ZBTB11 / Fold change vs veh, ZBTB11 / RFU, TAMM41 / Fold change vs veh, TAMM41 / RFU, KIAA1704 /// LOC100996395 / Fold change vs veh, KIAA1704 /// LOC100996395 / RFU, ING1 / Fold change vs veh, ING1 / RFU, TRMT61B / Fold change vs veh, TRMT61B / RFU, FUBP3 / Fold change vs veh, FUBP3 / RFU, TP53 / Fold change vs veh, TP53 / RFU, TNKS2 / Fold change vs veh, TNKS2 / RFU, ZFP14 / Fold change vs veh, ZFP14 / RFU, ACTR2 / Fold change vs veh, ACTR2 / RFU, PPP3R1 / Fold change vs veh, PPP3R1 / RFU, PIK3R1 / Fold change vs veh, PIK3R1 / RFU, HNRNPA1 / Fold change vs veh, HNRNPA1 / RFU, RNF170 / Fold change vs veh, RNF170 / RFU, ZNF28 / Fold change vs veh, ZNF28 / RFU, RNGTT / Fold change vs veh, RNGTT / RFU, OGT / Fold change vs veh, OGT / RFU, BRD1 / Fold change vs veh, BRD1 / RFU, MARS / Fold change vs veh, MARS / RFU, ZNF655 / Fold change vs veh, ZNF655 / RFU, FAHD1 / Fold change vs veh, FAHD1 / RFU, BDP1 / Fold change vs veh, BDP1 / RFU, LRRCC1 / Fold change vs veh, LRRCC1 / RFU, ARID1A / Fold change vs veh, ARID1A / RFU, ZNF146 / Fold change vs veh, ZNF146 / RFU, ZNF330 / Fold change vs veh, ZNF330 / RFU, GPN3 / Fold change vs veh, GPN3 / RFU, C9orf123 / Fold change vs veh, C9orf123 / RFU, N4BP2L2 / Fold change vs veh, N4BP2L2 / RFU, ARFIP1 / Fold change vs veh, ARFIP1 / RFU, FAM179B / Fold change vs veh, FAM179B / RFU, BCL10 / Fold change vs veh, BCL10 / RFU, UHRF1BP1L / Fold change vs veh, UHRF1BP1L / RFU, BET1 / Fold change vs veh, BET1 / RFU, CNOT2 / Fold change vs veh, CNOT2 / RFU, ZNF268 / Fold change vs veh, ZNF268 / Fold change vs veh, ZNF507 / RFU, DGCR2 / Fold change vs veh, DGCR2 / RFU, WDSUB1 / Fold change vs veh, WDSUB1 / Fold change vs veh, HSP90B1 /// MIR3652 / RFU, ADSS / Fold change vs veh, ADSS / RFU, GK / Fold change vs veh, GK / RFU, ZNF148 / Fold change vs veh, ZNF148 / RFU, TAF9 / Fold change vs veh, TAF9 / RFU, SLC1A5 / Fold change vs veh, SLC1A5 / RFU, SLMO2 / Fold change vs veh, SLMO2 / RFU, ABCC4 / Fold change vs veh, ABCC4 / RFU, LOC101060439 /// RAP1B / Fold change vs veh, LOC101060439 /// RAP1B / RFU, RFX7 / Fold change vs veh, RFX7 / RFU, GTPBP10 / Fold change vs veh, GTPBP10 / RFU, CNEP1R1 / Fold change vs veh, CNEP1R1 / RFU, BIVM-ERCC5 /// ERCC5 / Fold change vs veh, BIVM-ERCC5 /// ERCC5 / RFU, ILF3 / Fold change vs veh, ILF3 / RFU 11762660_at / Fold change /veh 11762660_at / RFU VCAN (11757783_s_at) / Fold change /veh VCAN (11757783_s_at) / RFU DDX43 (11728927_at) / Fold change /veh DDX43 (11728927_at) / RFU KRT8 (11758188_x_at) / Fold change /veh KRT8 (11758188_x_at) / RFU NKD1 (11759106_at) / Fold change /veh NKD1 (11759106_at) / RFU SRD5A1 (11742802_a_at) / Fold change /veh SRD5A1 (11742802_a_at) / RFU TPSAB1 /// TPSB2 (11721975_s_at) / Fold change /veh TPSAB1 /// TPSB2 (11721975_s_at) / RFU GSTM3 (11746129_a_at) / Fold change /veh GSTM3 (11746129_a_at) / RFU IL23R (11737362_x_at) / Fold change /veh IL23R (11737362_x_at) / RFU TMEM51 (11727254_a_at) / Fold change /veh TMEM51 (11727254_a_at) / RFU PIWIL2 (11732686_x_at) / Fold change /veh PIWIL2 (11732686_x_at) / RFU ORM1 (11744905_x_at) / Fold change /veh ORM1 (11744905_x_at) / RFU CCDC152 (11743942_at) / Fold change /veh CCDC152 (11743942_at) / RFU ECM1 (11717891_a_at) / Fold change /veh ECM1 (11717891_a_at) / RFU IL23R (11748794_a_at) / Fold change /veh IL23R (11748794_a_at) / RFU TNFAIP8L3 (11732012_x_at) / Fold change /veh TNFAIP8L3 (11732012_x_at) / RFU MBOAT4 (11741988_at) / Fold change /veh MBOAT4 (11741988_at) / RFU 11764193_at / Fold change /veh 11764193_at / RFU TMEM53 (11763286_at) / Fold change /veh TMEM53 (11763286_at) / RFU MAGEB2 (11727129_at) / Fold change /veh MAGEB2 (11727129_at) / RFU TMEM200A (11744735_a_at) / Fold change /veh TMEM200A (11744735_a_at) / RFU CCDC152 (11751479_a_at) / Fold change /veh CCDC152 (11751479_a_at) / RFU FAM211A (11726209_a_at) / Fold change /veh FAM211A (11726209_a_at) / RFU RGS16 (11746705_a_at) / Fold change /veh RGS16 (11746705_a_at) / RFU VCAN (11755009_s_at) / Fold change /veh VCAN (11755009_s_at) / RFU RHOB (11743442_s_at) / Fold change /veh RHOB (11743442_s_at) / RFU RGS16 (11720943_a_at) / Fold change /veh RGS16 (11720943_a_at) / RFU RGS16 (11720944_at) / Fold change /veh RGS16 (11720944_at) / RFU, VPS4B / Fold change vs veh, VPS4B / RFU, CREB1 / Fold change vs veh, CREB1 / RFU, DNAJC13 / Fold change vs veh, DNAJC13 / RFU, GNAQ / Fold change vs veh, GNAQ / RFU, CDK5R1 / Fold change vs veh, CDK5R1 / RFU, ZRANB3 / Fold change vs veh, ZRANB3 / RFU, CUL4A / Fold change vs veh, CUL4A / RFU, CCNY / Fold change vs veh, CCNY / RFU, UFL1 / Fold change vs veh, UFL1 / RFU, COG3 / Fold change vs veh, COG3 / RFU, DIAPH2 / Fold change vs veh, DIAPH2 / RFU, SKA2 / Fold change vs veh, SKA2 / RFU, AFF3 / Fold change vs veh, AFF3 / RFU, LMF1 / Fold change vs veh, LMF1 / RFU, IPO11 / Fold change vs veh, IPO11 / RFU, DFFB / Fold change vs veh, DFFB / RFU, FOXP1 / Fold change vs veh, FOXP1 / RFU, CARD8 / Fold change vs veh, CARD8 / RFU, STRN3 / Fold change vs veh, STRN3 / RFU, ADK / Fold change vs veh, ADK / RFU, RASSF2 / Fold change vs veh, RASSF2 / RFU, WIPF1 / Fold change vs veh, WIPF1 / RFU, LARP1B / Fold change vs veh, LARP1B / RFU, RASA1 / Fold change vs veh, RASA1 / RFU, RB1 / Fold change vs veh, RB1 / RFU, PPFIA1 / Fold change vs veh, PPFIA1 / RFU, MAT2A / Fold change vs veh, MAT2A / RFU, CCT5 / Fold change vs veh, CCT5 / RFU, WDR92 / Fold change vs veh, WDR92 / RFU, CUX1 / Fold change vs veh, CUX1 / RFU, TTC7A / Fold change vs veh, TTC7A / RFU, TMEM135 / Fold change vs veh, TMEM135 / RFU, DEPTOR / Fold change vs veh, DEPTOR / RFU, CPM / Fold change vs veh, CPM / RFU, DNAJB6 / Fold change vs veh, DNAJB6 / RFU, CACNA2D3 / Fold change vs veh, CACNA2D3 / RFU, DTX4 / Fold change vs veh, DTX4 / RFU, TFCP2 / Fold change vs veh, TFCP2 / RFU, GMCL1 /// GMCL1P1 / Fold change vs veh, GMCL1 /// GMCL1P1 / RFU, AEBP2 / Fold change vs veh, AEBP2 / RFU, SNHG1 /// SNORD22 /// SNORD25 /// SNORD26 /// SNORD27 /// SNORD28 /// SNORD29 /// SNORD31 / Fold change vs veh, SNHG1 /// SNORD22 /// SNORD25 /// SNORD26 /// SNORD27 /// SNORD28 /// SNORD29 /// SNORD31 / Fold change (Aza/veh), C12orf56 (ProbeSet 11735607_a_at) / Fold change (ACY-1035/veh), C12orf56 (ProbeSet 11735607_a_at) / Fold change (Aza/veh), FGFR1OP (ProbeSet 11751329_s_at) / Fold change (ACY-1035/veh), FGFR1OP (ProbeSet 11751329_s_at) / Fold change (Aza/veh), VPS36 (ProbeSet 11739960_a_at) / Fold change (ACY-1035/veh), VPS36 (ProbeSet 11739960_a_at) / RFU SYPL1 (11715823_x_at) / Fold change /veh SYPL1 (11715823_x_at) / RFU IGFBP7 (11715501_s_at) / Fold change /veh IGFBP7 (11715501_s_at) / RFU REEP3 (11722064_at) / Fold change /veh REEP3 (11722064_at) / RFU IGLL1 (11728026_x_at) / Fold change /veh IGLL1 (11728026_x_at): dose or concentration left out as unconfirmed
Details: MV-4-11 cells, 48 hours

Nc1ccc(-c2cccs2)cc1NC(=O)c1ccc2c(c1)cc(C1CC1)n2CCN1CCOCC1 [ACY-1035]
RFU CDKN2B (11736163_a_at): 9.39 RFU
